# In PubChem BioAssay (NCI):
#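 GI50 marks 50% less growth. The concentration for full growth arrest is given as TGI.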
# Experiments:
# Assay in all cases: NCI tumour cell line growth inhibition, 384-well format
# [1] = system: 786-0 renal
# [2] = system: A498 renal
# [3] = system: A549 NSCLC
# [4] = system: ACHN renal
# [5] = system: CCRF-CEM leukemia
# [6] = system: COLO 205 colon
# [7] = system: DU-145 prostate
# [8] = system: EKVX NSCLC
# [9] = system: HCT-116 colon
# [10] = system: HL-60(TB) leukemia
# [11] = system: HOP-62 NSCLC
# [12] = system: HOP-92 NSCLC
# [13] = system: HT29 colon
# [14] = system: IGROV1 ovarian
# [15] = system: K-562 leukemia
# [16] = system: LOX IMVI melanoma
# [17] = system: MALME-3M melanoma
# [18] = system: MCF7 breast
# [19] = system: MDA-MB-231 breast
# [20] = system: MOLT-4 leukemia
# [21] = system: NCI-H226 lung
# [22] = system: NCI-H23 lung
# [23] = system: NCI-H460 NSCLC
# [24] = system: NCI-H522 lung
# [25] = system: NCI/ADR-RES ovarian
# [26] = system: OVCAR-3 ovarian
# [27] = system: OVCAR-4 ovarian
# [28] = system: OVCAR-5 ovarian
# [29] = system: PC-3 prostate
# [30] = system: RPMI-8226 leukemia
# [31] = system: RXF 393 renal
# [32] = system: SF-268 CNS
# [33] = system: SF-295 CNS
# [34] = system: SF-539 CNS
# [35] = system: SK-MEL-2 melanoma
# [36] = system: SK-MEL-28 melanoma
# [37] = system: SK-OV-3 ovarian
# [38] = system: SN12C renal
# [39] = system: SNB-19 CNS
# [40] = system: SNB-75 CNS
# [41] = system: SR leukemia
# [42] = system: SW-620 colon
# [43] = system: T-47D breast
# [44] = system: TK-10 renal
# [45] = system: U251 glioblastoma
# [46] = system: UACC-62 melanoma
# [47] = system: UO-31 renal
structure (smiles),measurement,setting,value
Cc1cc(-c2nc(C(=O)Nc3cc4oc(N5CCOCC5)nc4nc3N3CC[C@@H](O)C3)co2)ccn1,GI50,[1],43.4 µM
same,TGI,[1],> 100 µM
same,GI50,[2],12.3 µM
same,TGI,[2],> 100 µM
same,GI50,[3],32.3 µM
same,TGI,[3],> 100 µM
same,GI50,[4],19.8 µM
same,TGI,[4],> 100 µM
same,GI50,[5],21.4 µM
same,TGI,[5],62.2 µM
same,GI50,[6],20.4 µM
same,TGI,[6],50.2 µM
same,GI50,[7],34.1 µM
same,TGI,[7],> 100 µM
same,GI50,[8],14.2 µM
same,TGI,[8],71.2 µM
same,GI50,[9],19.4 µM
same,TGI,[9],> 100 µM
same,GI50,[10],17.7 µM
same,TGI,[10],44.2 µM
same,GI50,[11],15.3 µM
same,TGI,[11],> 100 µM
same,GI50,[12],27.3 µM
same,TGI,[12],> 100 µM
same,GI50,[13],> 100 µM
same,TGI,[13],> 100 µM
same,GI50,[14],11.4 µM
same,TGI,[14],35.6 µM
same,GI50,[15],34.9 µM
same,TGI,[15],> 100 µM
same,GI50,[16],39.3 µM
same,TGI,[16],> 100 µM
same,GI50,[17],19.4 µM
same,TGI,[17],> 100 µM
same,GI50,[18],16.5 µM
same,TGI,[18],> 100 µM
same,GI50,[19],36.9 µM
same,TGI,[19],> 100 µM
same,GI50,[20],13.2 µM
same,TGI,[20],26.6 µM
same,GI50,[21],81.2 µM
same,TGI,[21],> 100 µM
same,GI50,[22],13.1 µM
same,TGI,[22],47.5 µM
same,GI50,[23],29.8 µM
same,TGI,[23],> 100 µM
same,GI50,[24],4.32 µM
same,TGI,[24],22.7 µM
same,GI50,[25],> 100 µM
same,TGI,[25],> 100 µM
same,GI50,[26],13.3 µM
same,TGI,[26],42 µM
same,GI50,[27],36.9 µM
same,TGI,[27],> 100 µM
same,GI50,[28],46 µM
same,TGI,[28],> 100 µM
same,GI50,[29],35.8 µM
same,TGI,[29],> 100 µM
same,GI50,[30],15.5 µM
same,TGI,[30],39.4 µM
same,GI50,[31],12 µM
same,TGI,[31],64.1 µM
same,GI50,[32],54.2 µM
same,TGI,[32],> 100 µM
same,GI50,[33],53.7 µM
same,TGI,[33],> 100 µM
same,GI50,[34],23.2 µM
same,TGI,[34],> 100 µM
same,GI50,[35],15.5 µM
same,TGI,[35],41.6 µM
same,GI50,[36],49.6 µM
same,TGI,[36],> 100 µM
same,GI50,[37],8.43 µM
same,TGI,[37],44.1 µM
same,GI50,[38],21.5 µM
same,TGI,[38],> 100 µM
same,GI50,[39],20.4 µM
same,TGI,[39],> 100 µM
same,GI50,[40],11.2 µM
same,TGI,[40],58.8 µM
same,GI50,[41],18 µM
same,TGI,[41],37.3 µM
same,GI50,[42],28.5 µM
same,TGI,[42],> 100 µM
same,GI50,[43],11.8 µM
same,TGI,[43],88 µM
same,GI50,[44],18.6 µM
same,TGI,[44],> 100 µM
same,GI50,[45],32.7 µM
same,TGI,[45],> 100 µM
same,GI50,[46],22.6 µM
same,TGI,[46],> 100 µM
same,GI50,[47],33.5 µM
same,TGI,[47],> 100 µM
C[C@@H](Oc1cc(-n2cnc3ccc(CN4CCN(C)CC4)cc32)sc1C(N)=O)c1ccccc1C(F)(F)F,GI50,[1],1.17 µM
same,TGI,[1],2.73 µM
same,GI50,[2],0.871 µM
same,TGI,[2],12.2 µM
same,GI50,[3],0.819 µM
same,TGI,[3],6.85 µM
same,GI50,[4],3.29 µM
same,TGI,[4],13.8 µM
same,GI50,[5],0.18 µM
same,TGI,[5],0.329 µM
same,GI50,[6],0.256 µM
same,TGI,[6],0.617 µM
same,GI50,[7],0.346 µM
same,TGI,[7],1.21 µM
same,GI50,[8],0.734 µM
same,TGI,[8],4.19 µM
same,GI50,[9],0.534 µM
same,TGI,[9],3.04 µM
same,GI50,[10],0.203 µM
same,TGI,[10],0.352 µM
same,GI50,[11],0.465 µM
same,TGI,[11],2.34 µM
same,GI50,[12],1.57 µM
same,TGI,[12],5.26 µM
same,GI50,[13],0.36 µM
same,TGI,[13],1.25 µM
same,GI50,[14],0.844 µM
same,TGI,[14],11.4 µM
same,GI50,[15],0.307 µM
same,TGI,[15],1.01 µM
same,GI50,[16],0.588 µM
same,TGI,[16],1.95 µM
same,GI50,[17],1.15 µM
same,TGI,[17],2.37 µM
same,GI50,[18],0.384 µM
same,TGI,[18],2.5 µM
same,GI50,[19],0.679 µM
same,TGI,[19],10.6 µM
same,GI50,[20],0.193 µM
same,TGI,[20],0.342 µM
same,GI50,[21],3.55 µM
same,TGI,[21],17.8 µM
same,GI50,[22],0.384 µM
same,TGI,[22],1.68 µM
same,GI50,[23],0.32 µM
same,TGI,[23],0.906 µM
same,GI50,[24],0.206 µM
same,TGI,[24],0.445 µM
same,GI50,[25],1.69 µM
same,TGI,[25],3.59 µM
same,GI50,[26],0.227 µM
same,TGI,[26],0.534 µM
same,GI50,[27],1.81 µM
same,TGI,[27],10.2 µM
same,GI50,[28],0.532 µM
same,TGI,[28],3.76 µM
same,GI50,[29],0.804 µM
same,TGI,[29],11.4 µM
same,GI50,[30],0.25 µM
same,TGI,[30],0.734 µM
same,GI50,[31],0.192 µM
same,TGI,[31],0.565 µM
same,GI50,[32],0.882 µM
same,TGI,[32],3.64 µM
same,GI50,[33],1.05 µM
same,TGI,[33],9.34 µM
same,GI50,[34],0.462 µM
same,TGI,[34],1.72 µM
same,GI50,[35],0.272 µM
same,TGI,[35],0.839 µM
same,GI50,[36],1.53 µM
same,TGI,[36],2.94 µM
same,GI50,[37],0.402 µM
same,TGI,[37],2.6 µM
same,GI50,[38],2.89 µM
same,TGI,[38],15.4 µM
same,GI50,[39],1.18 µM
same,TGI,[39],15 µM
same,GI50,[40],1.68 µM
same,TGI,[40],5.3 µM
same,GI50,[41],0.146 µM
same,TGI,[41],0.294 µM
same,GI50,[42],0.34 µM
same,TGI,[42],1.51 µM
same,GI50,[43],1.83 µM
same,TGI,[43],5.23 µM
same,GI50,[44],1.22 µM
same,TGI,[44],6.03 µM
same,GI50,[45],0.689 µM
same,TGI,[45],5.08 µM
same,GI50,[46],0.613 µM
same,TGI,[46],2.1 µM
same,GI50,[47],2.67 µM
same,TGI,[47],10.3 µM
